This is an account of results in US20240285557A1, “PHARMACEUTICAL COMPOSITION COMPRISING LIPASE INHIBITOR FOR TREATMENT OR TREATMENT OF RNA VIRAL INFECTIONS” (priority 2021, published 2024).

Data set [1] concerns influenza A virus PR8 strain. Briefly: Proliferation of influenza A virus in MRC-5, NCI-H293, WI-38, and Calu-3 cells. Conditions: MRC-5, NCI-H293, WI-38, Calu-3 cells; 1, 10, 20 μM; vs solvent (vehicle). The format is cell-based.
Data set [2] concerns SARS-COV-2 strain KCDC03, KDCA51463, or KDCA55905. Kind of data set: Proliferation of SARS-CoV-2 in various cultured cells. It is filed as cell-based. Conditions: Vero E6, Caco-2, Calu-3 cells (FIGS. 21a to 21f); vs solvent (vehicle).
In data set [3] the test system is SARS-COV-2, IAV, BCOV, PEDV, RVA, PRRSV, and PSaV. Briefly: Viral genome copy (real-time PCR) and progeny virus production in cells infected with seven RNA viruses. Conditions: 1, 10, and 20 μM; dose-dependent, all seven viruses. The format is cell-based. The source says:
Subsequently, each well was washed three times with phosphate-buffered saline, followed by the addition of the respective viral culture media.
Subsequently, each plate underwent three cycles of freezing and thawing to detach the cells from each well for subsequent experiments.
To analyze the inhibitory effects of atglistatin and CAY10499 on the genome copies of each virus, RNA was extracted using the RNeasy mini kit (Qiagen). The extracted RNA was then used to synthesize cDNA using the TOPscript™ cDNA Synthesis kit (Enzynomics), which includes random hexamer and poly(rA)-oligo(dT). Afterward, real-time PCR was performed on the synthesized cDNA in the TOPreal™ qPCR 2× PreMix (Enzynomics) solution in the presence of specific primers for SARS-COV-2 nucleocapsid (N), influenza A virus PB1, bovine coronavirus spike (S), porcine epidemic diarrhea coronavirus nucleocapsid (N), bovine species A rotavirus VP6, porcine reproductive and respiratory syndrome virus matrix (M), and porcine sapovirus VPg, using the LineGene 9600 Plus Real-time PCR detection system (Bioer, Hangzhou, China).
To analyze the inhibitory effects of atglistatin and CAY10499 on the production of progenies of the viruses, the supernatant obtained after three cycles of freezing and thawing was serially ten-fold diluted. […] After adsorption, each well was washed twice with phosphate-buffered saline (pH 7.4), followed by the addition of the respective culture media.
Then, after removal of the supernatants, the cells were fixed with 4% paraformaldehyde for 15 minutes and each well was washed thrice with phosphate-buffered saline and treated with 0.2% Triton X-100 at 20° C. for 10 minutes.
After three washes with phosphate-buffered saline, the wells were treated with 100- to 200-fold diluted primary antibodies to the spike protein of SARS-COV-2, the nucleoprotein protein of influenza A virus, the spike protein of bovine coronavirus, the nucleocapsid protein of porcine epidemic diarrhea coronavirus, the VP6 protein of bovine species A rotavirus, the matrix protein of porcine reproductive and respiratory syndrome virus, and the VPg protein of porcine sapovirus, respectively, and applied to a refrigerator at 4° C. for 12 hours.
Subsequently, the supernatant was removed, and each well was washed thrice with phosphate-buffered saline, followed by incubation with a 100- to 200-fold dilution of a secondary antibody conjugated with Alexa Fluor 488 or fluorescein isothiocyanate at room temperature for 2 hours.
Each virus was allowed to adsorb onto the cells which were then cultured in a freshly changed medium containing DABPU-EM or DABPU-DE. Thereafter, the cells were detached from the wells for subsequent experiments.
(In general: In qPCR the cycle at which signal appears reflects the starting amount.)

In data set [4] the test system is Porcine sapovirus (Cowden). Conditions: Porcine sapovirus (Cowden).
The test system of data set [5] is Porcine respiratory reproductive syndrome virus (LMY). Conditions: Porcine respiratory reproductive syndrome virus (LMY).
The test system of data set [6] is Influenza A virus (H1N1) (PR8). Conditions: Influenza A virus (H1N1) (PR8).
Data set [7] relates to Bovine coronavirus (KWD20). Conditions: Bovine coronavirus (KWD20).
The subject of data set [8] is SARS-CoV-2 (KCDC03). Kind of data set: Half-maximal viral inhibitory concentration (IC50), immunofluorescence of virus-positive cells.
The test system of data set [9] is Species A Rotavirus (NCDV). The note with it: Species A Rotavirus (NCDV).
Data set [10] relates to influenza A virus PR8 strain. Kind of data set: Influenza A virus-infected mice treated with lipase inhibitor. It is filed as in vivo, C57BL/6J mice. The method, then:
For use in verifying the antiviral effect of lipase inhibition in animals infected with influenza A virus, 150 mg/ml of atglistatin and 150 mg/ml of CAY10499 were dissolved in DMSO. To evaluate the antiviral effect depending on the concentration, the drugs were prepared at concentrations of 1.000, 0.500, 0.100, 0.010, and 0.001 mg/ml. […] The drugs were completely dissolved by vortexing.
For evaluating the antiviral efficacy of CAY10499, mouse groups were prepared in the same manner with the exception of using CAY10499 instead of atglistatin.
Influenza A virus inoculation was carried out on anesthetized mice via an intranasal route at 1,000 PFU per mouse, following the same procedure as above. In cases where the virus was not injected, only phosphate-buffered saline was administered. Observations were made for 15 days, during which survival rates, body weight, and clinical symptoms were monitored and recorded daily. […] Drug treatment began two days after the inoculation of influenza A virus.
The survival rate, which was 100% with a 0% mortality rate on day 0 of the infection, was measured daily over 15 days, and compared with the survival rate of the virus-injected and untreated group. Statistical significance was analyzed using the Log Rank Test, with a p value of 0.05 or […] considered significant.
Each group consisted of four seven-week-old female wild-type C57BL/6J mice, acclimatized for one week, and used in the experiment at eight weeks of age.
Mice were inoculated with influenza A virus PR8 strain in the same manner as described above, and drug treatment was conducted for 4 days, starting from the second day post-infection. On the sixth day post-infection, the mice were euthanized for autopsy.
These tissues were assayed for free fatty acid levels.
To evaluate lipid droplets and influenza A virus antigen in the lung tissues, the fixed tissues were prepared into 3-μm-thick frozen sections. […] After washing, the sections were mounted with Slow-Fade Gold antifade reagent for nucleus staining.
The sections were then finely cut at 3 μm thickness, deparaffinized in xylene, and rehydrated through graded alcohols and water. […] Histological examination was then performed using an optical microscope.
Immunohistochemistry was performed for influenza A virus antigens in the lung tissue.

Data set [11] relates to Porcine epidemic diarrhea coronavirus (QIAP1401). Conditions: Porcine epidemic diarrhea coronavirus (QIAP1401).
Where [12] appears, read: 5 mg/kg/day for 4 days, sixth day post-infection.
Where [13] appears, read: 5 mg/kg/day, vs untreated virus-inoculated group.

The structures appear in SMILES notation.

A word on the IC50: it is the point on the concentration scale where inhibition reaches its midpoint. A higher IC50 goes with weaker potency. Regarding `CCN(C)C(=O)Nc1cccc(-c2ccc(N(C)C)cc2)c1` [DABPU-EM, 3-(4′-(dimethylamino)-(1,1′-biphenyl)-3-yl)-1-ethyl-1-methylurea], in data set [1], the progeny virus number result is “significantly reduced” and the “viral genome copy number” value is given as “significantly reduced”. The “number of viral genome copies” value in data set [2] is recorded as “significantly reduced”. Besides, in [3], the “copies of genomes of each virus” value is on record as “reduced” and the “production of progenies of each virus” value is “reduced”. Also, the “SI (CC50/IC50)” value in data set [4] worked out at 62. For the same compound, the “SI (CC50/IC50)” value in data set [5] was 78. In data set [6], the “SI (CC50/IC50)” value was 127. In data set [7], the “SI (CC50/IC50)” value came to 54. Moreover, the “SI (CC50/IC50)” value in data set [8] (SARS-CoV-2 (KCDC03)) was 122. Further, the IC50 in data set [8] (Vero E6 cells, MOI 0.01 ffu/cell, drug added after 18 hours, additional 18 hours) came to 1710 nM. For the same compound, in data set [9], the “SI (CC50/IC50)” value was 32. In [10] (setting [12]), the “free fatty acids and glycerol concentrations in lung tissues” value is reported as “significantly reduced”; the “progeny virus numbers in lung tissues” value was “significantly reduced”; the “virus gene numbers in lung tissues” value is reported as “significantly reduced”. For the same compound, in data set [10] (setting [13]), the “lung lesions, including interstitial pneumonia, and number of virus-positive cells” value was “alleviation and reduction”; the “number of lipid droplets in bronchiolar epithelial cells” value is reported as “no significant decrease”; the “viral antigen in the bronchiolar epithelial cells” value is “significantly decreasing”. Besides, in [10] (10 mg kg^−1 day^−1 intraperitoneally for four days from day 2 post infection, 15 days observation, control 100% mortality), the survival rate stood at 50%. Moreover, the “survival rate, weight loss, and clinical symptoms” value in data set [10] (0.01 to 10 mg/kg/day, dose-dependent) is reported as “improvement”. In addition, in data set [11], the “SI (CC50/IC50)” value was determined as 108.
